Results as given in ChEMBL document CHEMBL3734756, “Novel -carbolinequinazolinone hybrid as an inhibitor of Leishmania donovani trypanothione reductase: Synthesis, molecular docking and bioevaluation” (Medchemcomm, 2015).
Activity calls are given as the source filed them. The calls are words filed in the database; no cut-off is given here.

Tests used:
[1] = target: Trypanothione reductase (Leishmania donovani) (UniProt P39050); assay: Inhibition of recombinant Leishmania donovani trypanothione reductase expressed in Escherichia coli BL21 (DE3) using trypanothione disulphide as substrate at 100 uM preincubated for 5 mins followed by substrate addition by microplate reader analysis relative to control
Sequence of Trypanothione reductase (Leishmania donovani) (P39050 whole entry): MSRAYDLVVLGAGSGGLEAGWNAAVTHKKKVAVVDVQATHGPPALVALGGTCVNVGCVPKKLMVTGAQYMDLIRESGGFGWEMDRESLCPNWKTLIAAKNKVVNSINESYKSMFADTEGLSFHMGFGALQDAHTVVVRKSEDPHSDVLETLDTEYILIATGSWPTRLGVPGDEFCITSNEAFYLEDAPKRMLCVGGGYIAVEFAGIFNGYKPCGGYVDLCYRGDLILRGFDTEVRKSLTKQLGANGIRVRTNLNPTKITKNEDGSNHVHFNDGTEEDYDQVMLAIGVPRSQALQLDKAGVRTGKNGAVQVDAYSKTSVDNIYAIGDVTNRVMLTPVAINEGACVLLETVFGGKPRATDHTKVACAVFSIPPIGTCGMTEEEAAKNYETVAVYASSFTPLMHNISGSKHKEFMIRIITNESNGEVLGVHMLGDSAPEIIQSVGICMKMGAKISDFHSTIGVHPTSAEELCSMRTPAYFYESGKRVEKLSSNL

[2] = target: Trypanothione reductase (Leishmania donovani) (UniProt P39050); assay: Inhibition of recombinant Leishmania donovani trypanothione reductase expressed in Escherichia coli BL21 (DE3) using trypanothione disulphide as substrate at 50 uM preincubated for 5 mins followed by substrate addition by microplate reader analysis relative to control
Leishmania donovani [3] = assay: Antileishmanial activity against extracellular promastigote stage of Leishmania donovani after 96 hrs by luciferase reporter gene assay; type: functional, organism-based
Leishmania donovani [4] = assay: Antileishmanial activity against amastigote stage of Leishmania donovani infected in mouse J774A.1 cells after 72 hrs by luciferase reporter gene assay; type: functional, organism-based; details: J774.A1, 72 h
[5] = Cytotoxicity against African green monkey Vero cells assessed as cell viability after 72 hrs by MTT assay; type: cell-based; details: chlorocebus sabaeus
[6] = (§1) Selectivity index, ratio of CC50 for African green monkey Vero cells to IC50 for amastigote stage of Leishmania donovani infected in mouse J774A.1 cells; type: functional
Trypanothione reductase = Trypanothione reductase (Leishmania donovani, UniProt P39050); assay: Competitive inhibition of recombinant Leishmania donovani trypanothione reductase expressed in Escherichia coli BL21 (DE3) by Dixon plot analysis in presence of trypanothione disulphide
Sequence of Trypanothione reductase (P39050 whole entry): as above

Vero = assay: as §1; type: functional

| Compound | inhibition [1] | inhibition [2] | IC50 (Leishmania donovani [3]) | IC50 (Leishmania donovani [4]) | Ki (Trypanothione reductase) | CC50 at 72 h [5] | Ratio CC50/IC50 [6] | Ratio CC50/IC50 (Vero) |
| --- | --- | --- | --- | --- | --- | --- | --- | --- |
| COC(=O)c1cc2c([nH]c3ccccc32)c(C2Nc3ccccc3C(=O)N2c2ccc(OC)cc2)n1 (stereo unspecified) | inactive | inactive | – | – | – | – | – | – |
| COC(=O)c1cc2c([nH]c3ccccc32)c(C2Nc3ccccc3C(=O)N2Cc2ccccc2)n1 (stereo unspecified) | 11% | 6% | – | – | – | – | – | – |
| CCCCCCCCCCCCCCCCOP(=O)([O-])OCC[N+](C)(C)C [MILTEFOSINE] | – | – | 1.2 µM | 8.1 µM | – | 56.5 µM | 7 | – |
| COC(=O)c1cc2c([nH]c3ccccc32)c(C2Nc3ccccc3C(=O)N2c2ccc(F)cc2)n1 (stereo unspecified) | 96% | 81% | 4.6 µM | 6 µM | 3.9 µM | 217 µM | 36 | – |
| sodium stibogluconate | – | – | – | – | – | – | – | 7 |
| COC(=O)c1cc2c([nH]c3ccccc32)c(C2Nc3ccccc3C(=O)N2c2ccc(Cl)cc2)n1 (stereo unspecified) | 67% | 64% | 3.3 µM | 4.4 µM | 7.2 µM | > 400 µM | >91 | – |
| CCCCCN1C(=O)c2ccccc2NC1c1nc(C(=O)OC)cc2c1[nH]c1ccccc12 (stereo unspecified) | 99% | 90% | 9.9 µM | > 40 µM | 0.8 µM | – | – | – |
| COC(=O)c1cc2c([nH]c3ccccc32)c(C2Nc3ccccc3C(=O)N2c2ccccc2)n1 (stereo unspecified) | 18% | 16% | – | – | – | – | – | – |
| COC(=O)c1cc2c([nH]c3ccccc32)c(C2Nc3ccccc3C(=O)N2Cc2ccc(Cl)c(Cl)c2)n1 (stereo unspecified) | 85% | 77% | 4.8 µM | 4.3 µM | 3.7 µM | 104 µM | 24 | – |
| CCCCN1C(=O)c2ccccc2NC1c1nc(C(=O)OC)cc2c1[nH]c1ccccc12 (stereo unspecified) | 35% | 28% | – | – | – | – | – | – |
| COC(=O)c1cc2c([nH]c3ccccc32)c(C2Nc3ccccc3C(=O)N2Cc2ccc(OC)cc2)n1 (stereo unspecified) | 60% | 56% | 5.4 µM | 35.2 µM | 9.2 µM | 106 µM | 3 | – |

Further lines, with some results ahead:

| inhibition [1] | inhibition [2] | IC50 (Leishmania donovani [3]) | IC50 (Leishmania donovani [4]) | Ki (Trypanothione reductase) | Compound | CC50 at 72 h [5] | Ratio CC50/IC50 [6] | Ratio CC50/IC50 (Vero) |
| --- | --- | --- | --- | --- | --- | --- | --- | --- |
| 9% | 7% | – | – | – | CCCN1C(=O)c2ccccc2NC1c1nc(C(=O)OC)cc2c1[nH]c1ccccc12 (stereo unspecified) | – | – | – |
| inactive | inactive | – | – | – | COC(=O)c1cc2c([nH]c3ccccc32)c(C2Nc3ccccc3C(=O)N2C2CC2)n1 (stereo unspecified) | – | – | – |
| 75% | 58% | 8.5 µM | > 40 µM | 6.5 µM | CCN1C(=O)c2ccccc2NC1c1nc(C(=O)OC)cc2c1[nH]c1ccccc12 (stereo unspecified) | – | – | – |
| 30% | 20% | – | – | – | COC(=O)c1cc2c([nH]c3ccccc32)c(C2Nc3ccccc3C(=O)N2C2CCCC2)n1 (stereo unspecified) | – | – | – |
| 1% | inactive | – | – | – | COC(=O)c1cc2c([nH]c3ccccc32)c(C2Nc3ccccc3C(=O)N2C2CCCCC2)n1 (stereo unspecified) | – | – | – |
| inactive | inactive | – | – | – | COC(=O)c1cc2c([nH]c3ccccc32)c(C2Nc3ccccc3C(=O)N2C2CCCCCC2)n1 (stereo unspecified) | – | – | – |
